In patent EP0539170A1, “Benzodiazepine derivatives and their use as antagonists of cholecystokinin and/or gastrin receptors” (priority 1991, dated 1993) one finds IC50 data, which are given here for 18 compounds.

Where a name gives a salt, the structure may show the parent alone.

In the experiment the target is T1, CCK Receptor (Pancreas) (Rattus norvegicus, UniProt P30551).
T1 construct: The whole pancreas was dissected free of fat tissue and was homogenized; from tissue; host or cells: rat pancreas membrane homogenate
T1 sequence (P30551 1-444): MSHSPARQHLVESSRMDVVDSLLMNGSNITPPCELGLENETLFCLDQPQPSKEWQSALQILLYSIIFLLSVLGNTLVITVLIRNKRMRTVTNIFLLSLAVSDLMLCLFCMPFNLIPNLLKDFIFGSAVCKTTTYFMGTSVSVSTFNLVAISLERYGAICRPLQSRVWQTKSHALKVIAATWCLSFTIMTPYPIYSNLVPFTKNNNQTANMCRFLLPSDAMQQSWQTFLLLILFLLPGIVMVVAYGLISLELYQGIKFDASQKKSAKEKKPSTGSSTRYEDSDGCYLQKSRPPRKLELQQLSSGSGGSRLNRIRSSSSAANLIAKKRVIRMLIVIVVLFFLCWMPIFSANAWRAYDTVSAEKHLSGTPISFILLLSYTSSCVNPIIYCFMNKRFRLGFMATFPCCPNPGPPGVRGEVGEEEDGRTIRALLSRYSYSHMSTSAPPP
Nature of the experiment: CCK Receptor Binding (Pancreas), inhibition of specific 125I-CCK-8 binding. Also noted: species or system Sprague-Dawley rats. The following applies: rat whole pancreas membranes; 50 pM 125I-CCK-8; 25°C for 2 hours. How it is done:
CCK-8 sulphated was radiolabelled with ¹²⁵I-Bolton Hunter reagent (2000 Ci/mmole). Receptor binding was performed according to Chang and Lotti (Proc. Natl. Acad. Sci. 83, 4923-4926, 1986) with minor modifications.
Male Sprague-Dawley rats (150-200g) were sacrificed by decapitation. The whole pancreas was dissected free of fat tissue and was homogenized in 25 volumes of ice-cold 10 mM N-2-hydroxyethyl-piperazine-N′-2-ethane sulphonic acid (HEPES) buffer with 0.1% soya bean trypsin inhibitor (pH 7.4 at 25°C) with a Kinematica Polytron. The homogenates were centrifuged at 47,800 g for 10 min. Pellets were resuspended in 10 volumes of binding assay buffer (20mM (HEPES)), 1mM ethylene glycol-bis-(β-aminoethylether-N,N′-tetraacetic acid) (EGTA), 5mM MgCl₂, 150 mM NaCl, bacitracin 0.25 mg/ml, soya bean trypsin inhibitor 0.1 mg/ml, and bovine serum albumin 2 mg/ml pH 6.5 at 25°C) using a Teflon (trademark) homogenizer, 15 strokes at 500 rpm. The homogenate was further diluted in binding assay buffer to give a final concentration of 0.5 mg original wet weight/1 ml buffer. […] All assays were run in duplicate. The reaction mixtures were incubated at 25°C for 2 hours and the reaction terminated by rapid filtration (Brandell 24 well cell harvester) over Whatman GF/C filters, washing 3 x 4 mls with ice-cold 100 Mm NaCl. The radioactivity on the filters was counted with a LKB gamma counter.
Drug displacement studies were performed with at least 10 concentrations of compounds of Formula I and the IC₅₀ values were determined by regression analysis IC₅₀ refers to the concentration of the compound required to inhibit 50% of specific binding of ¹²⁵I-CCK-8.
A word on the IC50: it is the midpoint of a concentration-inhibition curve. A lower IC50 goes with greater potency. The compound `CCN1C(=O)C(NC(=O)Nc2cccc(C)c2)N=C(N2CCCCCC2)c2ccccc21` (racemic) [Example 64, N-[3(R,S)-2,3-Dihydro-1-ethyl-5-(homopiperidin-1-yl)-2-oxo-1H-1,4-benzodiazepin-3-yl]-N′-[3-methylphenyl] urea] gave an IC50 of 0.00359 µM.
`Cc1cccc(NC(=O)NC2N=C(N3CCSCC3)c3ccccc3N(C)C2=O)c1` (racemic) [Example 65, N-[3(R,S)-2,3-Dihydro-1-methyl-2-oxo-5-(thiomorpholin-4-yl)-1H-1,4-benzodiazepin-3-yl]-N′-[3-methylphenyl] urea] came in with an IC50 of 0.0172 µM.
As to `CN1C(=O)C(NC(=O)Nc2ccccc2)N=C(N2CCCCCC2)c2ccccc21` (racemic) [Example 66, N-[3(R,S)-2,3-Dihydro-5-(homopiperidin-1-yl)-1-methyl-2-oxo-1H-1,4-benzodiazepin-3-yl]-N′-phenyl urea], the half-maximal inhibitory concentration (IC50) came out at 0.0142 µM.
Consider `CCc1cccc(NC(=O)NC2N=C(N3CCN(C)CC3)c3ccccc3N(CC(C)C)C2=O)c1` (single isomer, unassigned; (+)) [Example 27, (+)-N-[2,3-Dihydro-5-(4-methylpiperazin-1-yl)-1-(2-methylpropyl)-2-oxo-1H-1,4-benzodiazepin-3-yl]-N#MIN#-[3-ethylphenyl] urea], for which the 50% inhibitory concentration (IC50) was 3.08 µM.
Turning to `CCCN1C(=O)C(NC(=O)Nc2cccc(NC(=O)NC)c2)N=C(N2CCN(C)CC2)c2ccccc21` (single isomer, unassigned; (+)) [Example 40, (+)-N-[2,3-Dihydro-5-(4-methylpiperazin-1-yl)-2-oxo-1-propyl-1H-1,4-benzodiazepin-3-yl]-N′-[3-(methylaminocarbonylamino)phenyl] urea], the half-inhibitory concentration (IC50) is more than 3 µM.
`Cc1cccc(NC(=O)NC2N=C(N3CCCCCCC3)c3ccccc3N(C)C2=O)c1` (single isomer, unassigned; (+)) [Example 52, (+)-N-[2,3-Dihydro-5-(heptamethyleneimin-1-yl)-1-methyl-2-oxo-1H-1,4-benzodiazepin-3-yl]-N′-[3-methylphenyl] urea hydrochloride] registered an IC50 of 0.0117 µM.
`CN1C(=O)C(NC(=O)Nc2ccc3c(c2)CCC3)N=C(N2CCCCCC2)c2ccccc21` (single isomer, unassigned; (+)) [Example 59, (+)-N-(2,3-Dihydro-5-(homopiperidin-1-yl)-1-methyl-2-oxo-1H-1,4-benzodiazepin-3-yl]-N′-[5-indanyl] urea hydrochloride] displayed an IC50 of 0.00892 µM.
The figure for `CCc1cccc(NC(=O)NC2N=C(N3CCCCCC3)c3ccccc3N(C)C2=O)c1` (single isomer, unassigned; (+)) [Example 68, (+)-N-[2,3-Dihydro-5-(homopiperidin-1-yl)-1-methyl-2-oxo-1H-1,4-benzodiazepin-3-yl]-N′-[3-ethylphenyl] urea hydrochloride] is 0.00348 µM.
With `CCCN1C(=O)C(NC(=O)Nc2cccc(C)c2)N=C(N2CCSCC2)c2ccccc21` (single isomer, unassigned; (+)) [Example 70, (+)-N-[2,3-Dihydro-2-oxo-1-propyl-5-(thiomorpholin-4-yl)-1H-1,4-benzodiazepin-3-yl]-N′-[3-methylphenyl] urea hydrochloride] the figure was 0.0105 µM; with `CCCN1C(=O)C(NC(=O)Nc2cccc(C)c2)N=C(N2CCN(C)CC2)c2ccccc21` (single isomer, unassigned; (-)) [Example 24, (-)-N-(2,3-Dihydro-5-(4-methylpiperazin-1-yl)-2-oxo-1-propyl-1H-1,4-benzodiazepin-3-yl]-N′-[3-methylphenyl] urea], more than 3 µM; with `CCc1cccc(NC(=O)NC2N=C(N3CCN(C)CC3)c3ccccc3N(CC(C)C)C2=O)c1` (single isomer, unassigned; (-)) [Example 26, (-)-N-[2,3-Dihydro-5-(4-methylpiperazin-1-yl)-1-(2-methylpropyl)-2-oxo-1H-1,4-benzodiazepin-3-yl]-N#MIN#-[3-ethylphenyl] urea], 4.72 µM.
In the case of `Cc1cccc(NC(=O)NC2N=C(N3CCCCCC3)c3ccccc3N(C)C2=O)c1` (single isomer, unassigned; (-)) [Example 28, (-)-N-[2,3-Dihydro-5-(homopiperidin-1-yl)-1-methyl-2-oxo-1H-1,4-benzodiazepin-3-yl]-N′-[3-methylphenyl] urea], the concentration for half-maximal inhibition (IC50) was more than 3 µM.
Compound `CCCN1C(=O)C(NC(=O)Nc2ccc3c(c2)CCC3)N=C(N2CCN(C)CC2)c2ccccc21` (single isomer, unassigned; (-)) [Example 34, (-)-N-[2,3-Dihydro-5-(4-methylpiperazin-1-yl)-2-oxo-1-propyl-1H-1,4-benzodiazepin-3-yl]-N′-[5-indanyl] urea] registered an IC50 of more than 3 µM.
For the compound `CCCN1C(=O)C(NC(=O)Nc2cccc(N(C)C)c2)N=C(N2CCN(C)CC2)c2ccccc21` (single isomer, unassigned; (-)) [Example 41, (-)-N-[2,3-Dihydro-5-(4-methylpiperazin-1-yl)-2-oxo-1-propyl-1H-1,4-benzodiazepin-3-yl]-N′-[3-(dimethylamino)phenyl] urea], the half-maximal inhibitory concentration (IC50) was more than 3 µM.
The figure for `Cc1cccc(NC(=O)NC2N=C(N3CCCCCCC3)c3ccccc3N(C)C2=O)c1` (single isomer, unassigned; (-)) [Example 51, (-)-N-[2,3-Dihydro-5-(heptamethyleneimin-1-yl)-1-methyl-2-oxo-1H-1,4-benzodiazepin-3-yl]-N′-[3-methylphenyl] urea hydrochloride] is 1.92 µM; for `CN1C(=O)C(NC(=O)Nc2ccc3c(c2)CCC3)N=C(N2CCCCCC2)c2ccccc21` (single isomer, unassigned; (-)) [Example 58, (-)-N-[2,3-Dihydro-5-(homopiperidin-1-yl)-1-methyl-2-oxo-1H-1,4-benzodiazepin-3-yl]-N′-[5-indanyl] urea hydrochloride] it is 2.43 µM; for `CCc1cccc(NC(=O)NC2N=C(N3CCCCCC3)c3ccccc3N(C)C2=O)c1` (single isomer, unassigned; (-)) [Example 67, (-)-N-[2,3-Dihydro-5-(homopiperidin-1-yl)-1-methyl-2-oxo-1H-1,4-benzodiazepin-3-yl]-N′-[3-ethylphenyl] urea hydrochloride] it is 0.31 µM.
In turn, `CCCN1C(=O)C(NC(=O)Nc2cccc(C)c2)N=C(N2CCSCC2)c2ccccc21` (single isomer, unassigned; (-)) [Example 69, (-)-N-[2,3-Dihydro-2-oxo-1-propyl-5-(thiomorpholin-4-yl)-1H-1,4-benzodiazepin-3-yl]-N′-[3-methylphenyl] urea hydrochloride] returned a half-maximal inhibitory concentration (IC50) of 0.515 µM.
